Tests used:
Assay type in all cases: in vivo
[1] = system: Digitaria sanguinalis (DIGSA); test: Test Example 1 post-emergence herbicidal activity; conditions: 360 h, rate 125 g/ha, evaluated 15 days later, read-out: Post-emergence activity DIGSA (100=total damage to plant; 0=no damage to plant)
Procedure: (§1) Monocotyledonous and dicotyledonous test plants were sown in standard soil in pots. After cultivation for one day (pre-emergence) or after 10 days cultivation (post-emergence) under controlled conditions in a glasshouse, the plants were sprayed with an aqueous spray solution derived from the formulation of the technical active ingredient in 0.6 ml acetone and 45 ml formulation solution containing 10.6% Emulsogen EL (Registry number 61791-12-6), 42.2% N-methylpyrrolidone, 42.2% dipropylene glycol monomethyl ether (Registry number 34590-94-8) and 0.2% X-77 (Registry number 11097-66-8). The test plants were then grown in a greenhouse under optimum conditions until, 15 days later for post-emergence and 20 days for pre-emergence, the test was evaluated (100=total damage to plant; 0=no damage to plant).
(§2) Alopecurus myosuroides (ALOMY), Avena fatua (AVEFA), Lolium perenne (LOLPE), Setaria faberi (SETFA), Digitaria sanguinalis (DIGSA), Echinochloa crus-galli (ECHCG)

Lolium perenne (LOLPE) [2] = test: Test Example 1 post-emergence herbicidal activity; conditions: 360 h, rate 125 g/ha, evaluated 15 days later, read-out: Post-emergence activity LOLPE (100=total damage to plant; 0=no damage to plant)
Procedure: as §1, §2

[3] = system: Echinochloa crus-galli (ECHCG); test: Test Example 1 post-emergence herbicidal activity; conditions: 360 h, rate 125 g/ha, evaluated 15 days later, read-out: Post-emergence activity ECHCG (100=total damage to plant; 0=no damage to plant)
Procedure: as §1, §2

[4] = system: Alopecurus myosuroides (ALOMY); test: Test Example 1 post-emergence herbicidal activity; conditions: 360 h, rate 125 g/ha, evaluated 15 days later, read-out: Post-emergence activity ALOMY (100=total damage to plant; 0=no damage to plant)
Procedure: as §1, §2

Setaria faberi (SETFA) [5] = test: Test Example 1 post-emergence herbicidal activity; conditions: 360 h, rate 125 g/ha, evaluated 15 days later, read-out: Post-emergence activity SETFA (100=total damage to plant; 0=no damage to plant)
Procedure: as §1, §2

Avena fatua (AVEFA) [6] = test: Test Example 1 post-emergence herbicidal activity; conditions: 360 h, rate 125 g/ha, evaluated 15 days later, read-out: Post-emergence activity AVEFA (100=total damage to plant; 0=no damage to plant)
Procedure: as §1, §2

[7] = system: Digitaria sanguinalis (DIGSA); test: Test Example 1 pre-emergence herbicidal activity; conditions: Digitaria sanguinalis, 480 h, rate 250 g/ha, evaluated 20 days later, read-out: Pre-emergence activity DIGSA (100=total damage to plant; 0=no damage to plant)
Procedure: as §1, §2

Lolium perenne (LOLPE) [8] = test: Test Example 1 pre-emergence herbicidal activity; conditions: Lolium perenne, 480 h, rate 250 g/ha, evaluated 20 days later, read-out: Pre-emergence activity LOLPE (100=total damage to plant; 0=no damage to plant)
Procedure: as §1, §2

[9] = system: Echinochloa crus-galli (ECHCG); test: Test Example 1 pre-emergence herbicidal activity; conditions: Echinochloa crus-galli, 480 h, rate 250 g/ha, evaluated 20 days later, read-out: Pre-emergence activity ECHCG (100=total damage to plant; 0=no damage to plant)
Procedure: as §1, §2

[10] = system: Alopecurus myosuroides (ALOMY); test: Test Example 1 pre-emergence herbicidal activity; conditions: Alopecurus myosuroides, 480 h, rate 250 g/ha, evaluated 20 days later, read-out: Pre-emergence activity ALOMY (100=total damage to plant; 0=no damage to plant)
Procedure: as §1, §2

Setaria faberi (SETFA) [11] = test: Test Example 1 pre-emergence herbicidal activity; conditions: Setaria faberi, 480 h, rate 250 g/ha, evaluated 20 days later, read-out: Pre-emergence activity SETFA (100=total damage to plant; 0=no damage to plant)
Procedure: as §1, §2

Avena fatua (AVEFA) [12] = test: Test Example 1 pre-emergence herbicidal activity; conditions: Avena fatua, 480 h, rate 250 g/ha, evaluated 20 days later, read-out: Pre-emergence activity AVEFA (100=total damage to plant; 0=no damage to plant)
Procedure: as §1, §2

## CCCNC(=O)OC[C@]12CC[C@H](O1)[C@@H]1C(=O)C(c3c(CC)cc(C)cc3CC)=C(O)[C@@H]12 [Example T21]
[1]
  pest or weed control at 125 g/ha: 30%
Lolium perenne (LOLPE) [2]
  pest or weed control at 125 g/ha: 70%
[3]
  pest or weed control at 125 g/ha: 100%
[4]
  pest or weed control at 125 g/ha: 90%
Setaria faberi (SETFA) [5]
  pest or weed control at 125 g/ha: 60%
Avena fatua (AVEFA) [6]
  pest or weed control at 125 g/ha: 70%
[7]
  pest or weed control at 250 g/ha: 10%
Lolium perenne (LOLPE) [8]
  pest or weed control at 250 g/ha: 80%
[9]
  pest or weed control at 250 g/ha: 80%
[10]
  pest or weed control at 250 g/ha: 90%
Setaria faberi (SETFA) [11]
  pest or weed control at 250 g/ha: 70%
Avena fatua (AVEFA) [12]
  pest or weed control at 250 g/ha: 30%

## COC[C@]12CC[C@H](O1)[C@@H]1C(=O)C(c3c(C)cc(C)cc3C)=C(OC(=O)C3CC3)[C@@H]12 (single isomer, unassigned) [Example P30]
[1]
  pest or weed control at 125 g/ha: 90%
Lolium perenne (LOLPE) [2]
  pest or weed control at 125 g/ha: 70%
[3]
  pest or weed control at 125 g/ha: 100%
[4]
  pest or weed control at 125 g/ha: 80%
Setaria faberi (SETFA) [5]
  pest or weed control at 125 g/ha: 80%
[7]
  pest or weed control at 250 g/ha: 80%
Lolium perenne (LOLPE) [8]
  pest or weed control at 250 g/ha: 90%
[9]
  pest or weed control at 250 g/ha: 90%
[10]
  pest or weed control at 250 g/ha: 80%
Setaria faberi (SETFA) [11]
  pest or weed control at 250 g/ha: 80%
Avena fatua (AVEFA) [12]
  pest or weed control at 250 g/ha: 80%

## Cc1cc(C)c(C2=C(OC(=O)C(C)(C)C)[C@H]3[C@@H](C2=O)[C@@H]2CC[C@H]3O2)c(C)c1 (racemic) [Example P33, (1RS,2SR,6RS,7SR)-5-oxo-4-(2,4,6-trimethylphenyl)-10-oxatricyclo[5.2.1.0^2,6]dec-3-en-3-yl 2,2-dimethylpropionate]
[1]
  pest or weed control at 125 g/ha: 70%
Lolium perenne (LOLPE) [2]
  pest or weed control at 125 g/ha: 80%
[3]
  pest or weed control at 125 g/ha: 90%
[4]
  pest or weed control at 125 g/ha: 80%
Setaria faberi (SETFA) [5]
  pest or weed control at 125 g/ha: 70%
Avena fatua (AVEFA) [6]
  pest or weed control at 125 g/ha: 70%
[7]
  pest or weed control at 250 g/ha: 80%
Lolium perenne (LOLPE) [8]
  pest or weed control at 250 g/ha: 100%
[10]
  pest or weed control at 250 g/ha: 90%
Setaria faberi (SETFA) [11]
  pest or weed control at 250 g/ha: 80%
Avena fatua (AVEFA) [12]
  pest or weed control at 250 g/ha: 70%

## CSC[C@]12CC[C@H](O1)[C@@H]1C(=O)C(c3c(C)cc(C)cc3C)=C(O)[C@@H]12 [Example T53]
[7]
  pest or weed control at 250 g/ha: 10%
Lolium perenne (LOLPE) [8]
  pest or weed control at 250 g/ha: 10%
[9]
  pest or weed control at 250 g/ha: 0%
[10]
  pest or weed control at 250 g/ha: 10%
Setaria faberi (SETFA) [11]
  pest or weed control at 250 g/ha: 10%
Avena fatua (AVEFA) [12]
  pest or weed control at 250 g/ha: 20%

## CCc1cc(C)cc(CC)c1C1=C(OC(=O)OCC(C)C)[C@H]2[C@@H](C1=O)[C@@H]1CC[C@H]2O1 (racemic) [Example P24]
[3]
  pest or weed control at 125 g/ha: 100%
[4]
  pest or weed control at 125 g/ha: 100%
Setaria faberi (SETFA) [5]
  pest or weed control at 125 g/ha: 100%
[7]
  pest or weed control at 250 g/ha: 100%
Lolium perenne (LOLPE) [8]
  pest or weed control at 250 g/ha: 100%
[9]
  pest or weed control at 250 g/ha: 100%
[10]
  pest or weed control at 250 g/ha: 90%
Setaria faberi (SETFA) [11]
  pest or weed control at 250 g/ha: 100%
Avena fatua (AVEFA) [12]
  pest or weed control at 250 g/ha: 90%

## CCc1cc(C)cc(CC)c1C1=C(O)[C@@H]2[C@@H]3O[C@@H](C[C@H]3c3cccc(F)c3C#N)[C@@H]2C1=O [Example T157]
[1]
  pest or weed control at 125 g/ha: 60%
Lolium perenne (LOLPE) [2]
  pest or weed control at 125 g/ha: 40%
[3]
  pest or weed control at 125 g/ha: 100%
[4]
  pest or weed control at 125 g/ha: 60%
Setaria faberi (SETFA) [5]
  pest or weed control at 125 g/ha: 60%
Avena fatua (AVEFA) [6]
  pest or weed control at 125 g/ha: 60%
[7]
  pest or weed control at 250 g/ha: 0%
Lolium perenne (LOLPE) [8]
  pest or weed control at 250 g/ha: 70%
[9]
  pest or weed control at 250 g/ha: 50%
[10]
  pest or weed control at 250 g/ha: 30%
Setaria faberi (SETFA) [11]
  pest or weed control at 250 g/ha: 0%

## CCc1cc(C)cc(CC)c1C1=C(O)[C@@H]2[C@@H]3O[C@@H](C[C@H]3c3cccc(Cl)c3)[C@@H]2C1=O [Example T148]
[7]
  pest or weed control at 250 g/ha: 70%
Lolium perenne (LOLPE) [8]
  pest or weed control at 250 g/ha: 70%
[9]
  pest or weed control at 250 g/ha: 80%
[10]
  pest or weed control at 250 g/ha: 60%
Setaria faberi (SETFA) [11]
  pest or weed control at 250 g/ha: 60%
Avena fatua (AVEFA) [12]
  pest or weed control at 250 g/ha: 50%

— patent US8754242B2, “Herbicides” (Syngenta Crop Protection LLC, priority 2007, dated 2014)
